Experimental data reported in patent US9428519B2, “Acylated derivative of homoharringtonine, preparation method therefor, and application thereof” (HANGZHOU BENSHENG PHARMACEUTICAL CO., LTD., priority 2011, dated 2016).
Converted amounts (≈) assume the structure as drawn. “Also recorded” adds a separate entry of the source.

Legend:
[1] = test system: H9 (acute lymphoblastic leukemia, ALL); experiment: MTT growth inhibition of leukemia cells, 72 h; format: cell-based, human
Procedure, shortened: (§1)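 Compounds at several concentrations were incubated 72 h (37 °C, 5% CO2) with 6000 leukemia cells/well in 1640 medium plus 10% fetal bovine serum. The MTT read-out was set against untreated cells to derive viability and the 50% growth-inhibiting concentration.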

[2] = test system: Jurkat (acute lymphoblastic leukemia, ALL); experiment: MTT growth inhibition of leukemia cells, 72 h; format: cell-based, human; details: Homo sapiens, Jurkat
Procedure, shortened: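 Growth inhibition of the Jurkat ALL line was measured by MTT after 72 hours of compound exposure at 37° C. under 5% CO2. Wells of a 96-well plate held 6000 cells in 1640 medium plus 10% fetal bovine serum; untreated controls defined 100% viability, and inhibitory concentrations were derived from percent viability.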

[3] = test system: K562/adr (drug-resistant, chronic myeloid leukemia, CML); experiment: MTT growth inhibition of leukemia cells, 72 h; format: cell-based, human
Procedure, shortened: as §1

[4] = test system: Kasumi-1 (acute myeloid leukemia M2 type, AML-M2); experiment: MTT growth inhibition of leukemia cells, 72 h; format: cell-based, human
Procedure, shortened: as §1

[5] = test system: NB4 (acute promyelocytic leukemia, AML); experiment: MTT growth inhibition of leukemia cells, 72 h; format: cell-based, human
Procedure, shortened: as §1

[6] = test system: RPMI8226 (multiple myeloma); experiment: MTT growth inhibition of multiple myeloma cells, 72 h; format: cell-based, human
Procedure, shortened: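 Growth inhibition read by MTT after 72 h compound exposure (37 °C, 5% CO2) of 6000 RPMI8226 cells per well in 1640 medium plus 10% fetal bovine serum. Viability expressed against untreated cells (100%), from which the 72 h IC50 was derived.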

[7] = Body weight and toxicity in tumor-bearing NOD/SCID mice; format: in vivo; details: for Weight (g) Final / Weight (g) Initial: three times a day, 10 days; for Weight (g) Initial: initial (Day 0)
Description: Animal: NOD/SCID mice (multiple immunodeficiency mice), 8 weeks, female, purchased from Shanghai Laboratory Animal Center of Chinese Academy of Sciences, China.
BS-HH-002, wherein BS-HH-002-0.1 indicates a dosage of 0.1 mg/kg each time, and BS-HH-002-0.3 indicates a dosage of 0.3 mg/kg each time.
Under sterile conditions, the above tumor cells in the logarithmic growth phase are collected and injected in an amount of 5×10^7/0.2 ml/mice (cell viability>95%) by subcutaneous injection into the right subaxillary of NOD/SCID mice, thus establishing an NOD/SCID mice model bearing transplanted tumor of leukemia. The mice are administered on the third day after the inoculation, wherein the experimental groups are intragastrically administered in an experimentally designed amount and the negative control group is intragastrically administered with sterile water. Each mouse is intragastrically administered three times a day in 0.4 ml each time, at 8:00, 14:00 and 20:00 with 6-hour intervals, and is successively administered for 10 days. The day before administration is Day 0 and the weight and tumor size are determined approximately every 5 days to produce a dynamic plot on weight and tumor growth. On Day 31, the mice are dissected and the tumors are taken out and weighed. The tumor inhibition rate (%) after the application of medicament is determined based on the tumor inhibition rate of the control group being zero.
(§2) The values determined are presented as mean±standard error (M±SD). The experimental data for each group are analyzed by the One-way ANOVA method of SPSS 18.0 Statistical Software, and p<0.05 is deemed as having statistically significant difference.

[8] = test system: MGC-803 transplanted tumor of gastric cancer; experiment: Inhibition of transplanted tumor of gastric cancer in BALB/c-nu nude mice; format: in vivo; details: for Mass of tumor / Tumor Inhibition rate (%): MGC-803 in BALB/c-nu nude mice, 10 days, Day 27
Description: Gastric cancer cell lines: MGC-803
Animal: BALB/c-nu nude mice, 8 weeks, female, purchased from Shanghai Laboratory Animal Center of Chinese Academy of Sciences, China.
BS-HH-002, wherein BS-HH-002-0.1 indicates a dosage of 0.1 mg/kg each time, BS-HH-002-0.3 indicates a dosage of 0.3 mg/kg each time, BS-HH-002-0.5 indicates a dosage of 0.5 mg/kg each time, and BS-HH-002-1.0 indicates a dosage of 1.0 mg/kg each time.
Under sterile conditions, the above tumor cells in logarithmic growth phase are collected and injected in an amount of 2×10^7/0.2 ml/nude mice (cell viability>95%) into the right subaxillary of the nude mice by subcutaneous injection, thus establishing a BALB/c-nu nude mice model bearing transplanted tumor of gastric cancer. The mice are administered on the third day after the inoculation, wherein the experimental groups are intragastrically administered in an experimentally designed amount, and the negative control group is intragastrically administered with sterile water. Administration takes place at 8:00 for one time a day, at 8:00 and 14:00 for twice a day, and at 8:00, 14:00 and 20:00 with 6-hour intervals for three times day. The administrations are successive for 10 days. The day before administration is Day 0 and the weight and tumor size are determined approximately every 5 days to produce a plot on weight and tumor growth. On Day 27, the mice are dissected and the tumors are taken out and weighed. Based on a tumor inhibition rate of zero for the control group, the tumor inhibition rate (%) after the effect of the medicament is calculated.
as §2

[9] = 0.1 mg/kg/time, 1 time/day intragastric
[10] = 0.1 mg/kg/time, 2 times/day intragastric
[11] = 0.1 mg/kg/time, 3 times/day intragastric
[12] = 0.3 mg/kg/time, 1 time/day intragastric
[13] = 0.5 mg/kg/time, 1 time/day intragastric
[14] = 0.5 mg/kg/time, 2 times/day intragastric
[15] = 0.5 mg/kg/time, 3 times/day intragastric
[16] = 1.0 mg/kg/time, 1 time/day intragastric
[17] = 1.0 mg/kg/time, 3 times/day intragastric

COC(=O)C[C@](O)(CCCC(C)(C)OC(C)=O)C(=O)O[C@@H]1C(OC)=C[C@]23CCCN2CCc2cc4c(cc2[C@H]13)OCO4 [BS-HH-002, 6-acetylhomoharringtonine]
IC50 ([1]; Homo sapiens, MTT): 4 ng/mL (≈ 0.00681 µM)
IC90 ([1]; Homo sapiens, MTT): 10 ng/mL (≈ 0.017 µM)
improvement of anti-H9 activity compared with homoharringtonine ([1]; vs HHT): more than 5 fold
IC50 [2]: 3 ng/mL (≈ 0.0051 µM)
IC90 [2]: ≥ 16000 ng/mL
IC50 ([3]; Homo sapiens, K562/Adr, MTT): 15 ng/mL (≈ 0.0255 µM)
IC90 ([3]; Homo sapiens, K562/Adr, MTT): 310 ng/mL (≈ 0.528 µM)
improvement of anti-K562/adr activity compared with homoharringtonine ([3]; vs HHT): more than 3.2 fold
IC50 ([4]; Homo sapiens, Kasumi 1, MTT): 2 ng/mL (≈ 0.0034 µM)
IC90 ([4]; Homo sapiens, Kasumi 1, MTT): 7 ng/mL (≈ 0.0119 µM)
improvement of anti-Kasumi-1 activity compared with homoharringtonine ([4]; vs HHT): more than 3.4 fold
IC50 ([5]; Homo sapiens, MTT): 2 ng/mL (≈ 0.0034 µM)
IC90 ([5]; Homo sapiens, MTT): 6 ng/mL (≈ 0.0102 µM)
improvement of anti-NB4 activity compared with homoharringtonine ([5]; vs HHT): more than 3 fold
anti-RPMI8226 (multiple myeloma) effectiveness [6]: particularly effective
IC50 ([6]; Homo sapiens, RPMI-8226, MTT): 3 ng/mL (≈ 0.0051 µM)
IC90 ([6]; Homo sapiens, RPMI-8226, MTT): 18 ng/mL (≈ 0.0306 µM)
Weight (g) Final ([7]; 0.1 mg/kg/time intragastric): 26.7 ± 1.92 g
Weight (g) Initial ([7]; 0.1 mg/kg/time intragastric): 21.48 ± 0.05 g
Weight (g) Final ([7]; 0.3 mg/kg/time intragastric): 27.45 ± 2.48 g
Weight (g) Initial ([7]; 0.3 mg/kg/time intragastric): 22.45 ± 0.13 g
toxic or side effect ([7]; 0.1 and 0.3 mg/kg each time): does not have any obvious toxic or side effect; also recorded: does not demonstrate an obvious toxicity
impact on animal weight ([7]; initial vs final weight): does not have substantial impact on animal weight
tumor inhibition rate on gastric cancer ([8]; BALB/c-nu nude mice, all dosing regimes 0.1-1.0 mg/kg): more than 40%
Mass of tumor [8, 9]: 0.40 ± 0.18 g
Tumor Inhibition rate (%) [8, 9]: 48.97%
Mass of tumor [8, 10]: 0.46 ± 0.11 g
Tumor Inhibition rate (%) [8, 10]: 40.90%
Mass of tumor [8, 11]: 0.41 ± 0.09 g
Tumor Inhibition rate (%) [8, 11]: 48.14%
Mass of tumor [8, 12]: 0.38 ± 0.13 g
Tumor Inhibition rate (%) [8, 12]: 51.76%
Mass of tumor [8, 13]: 0.44 ± 0.13 g
Tumor Inhibition rate (%) [8, 13]: 43.81%
Mass of tumor [8, 14]: 0.44 ± 0.18 g
Tumor Inhibition rate (%) [8, 14]: 43.43%
Mass of tumor [8, 15]: 0.37 ± 0.18 g
Tumor Inhibition rate (%) [8, 15]: 52.12%
Mass of tumor [8, 16]: 0.43 ± 0.17 g
Tumor Inhibition rate (%) [8, 16]: 44.58%
Mass of tumor [8, 17]: 0.34 ± 0.05 g
Tumor Inhibition rate (%) [8, 17]: 56.67%
